# Where two headings read alike, the source gives them in different places. Marks after values point to notes of the source that are not given here. Peptide text beside a SMILES is read from it.
# Columns and labels:
# [1] = test system: Bacillus subtilis CMCC 63501; assay type: cell-based
# Protocol: (§1) The peptide antibacterial activity was determined against both gram-positive and gram-negative bacteria strains, including Escherichia coli ATCC 25922, Escherichia coli UB1005, Salmonella enterica serovar typhimurium C77-31, Staphylococcus aureus ATCC 29213, Staphylococcus aureus ATCC 25923, Bacillus subtilis CMCC 63501, and Staphylococcus epidermidis ATCC 12228. Clinically isolated Escherichia coli EC183 was provided by the 4th Affiliated Hospital of Harbin Medical University. MIC of the peptides was measured using a modified version of the National Committee for Clinical Laboratory Standards (NCCLS) broth microdilution method as described previously. The bacterial strains were inoculated and grown to mid-log phase in fresh Mueller-Hinton broth (MHB) at 37 °C. Bacterial inoculum suspensions were prepared at a final concentration of approximately 1 × 10^5 CFU/ml. Peptides were 2-fold serially diluted to make different concentrations, from 0.5 to 256 μM. Equal volumes of inoculum suspensions were then added to each well of a sterile 96-well plate with different concentrations of peptides, and the plate was incubated for 18 h at 37 °C. Broth with or without bacteria was employed as the positive control or the negative control, respectively. MIC was defined as the lowest concentration of peptides that prevented visible turbidity by visual inspection. […] After overnight incubation at 37 °C, MBC was defined as the lowest concentration of peptides that killed at least 99.9% of the initial inoculums. Experiments were performed in triplicate with three biological replicates.
# [2] = test system: Clinically isolated Escherichia coli EC183; assay type: cell-based
# Protocol: as §1
# [3] = test system: Escherichia coli ATCC 25922; assay type: cell-based
# Protocol: as §1
# [4] = test system: Escherichia coli UB1005; assay type: cell-based
# Protocol: as §1
# [5] = test system: Salmonella enterica serovar typhimurium C77-31; assay type: cell-based; settings: three independent experiments; for MBC S. typhi C77-31: lowest concentration killing at least 99.9% of initial inoculum
# Protocol: as §1
# [6] = test system: Staphylococcus aureus ATCC 25923; assay type: cell-based; settings: ATCC 25923, 18 h
# Protocol: as §1
# [7] = test system: Staphylococcus aureus ATCC 29213; assay type: cell-based
# Protocol: as §1
# [8] = test system: Staphylococcus epidermidis ATCC 12228; assay type: cell-based; settings: ATCC 12228, 18 h
# Protocol: as §1
# [9] = test system: Candida albicans CGMCC 2.2086; experiment: microbe, parasite or virus in culture; assay type: cell-based
# Description: (§2) The antifungal activities were monitored in RPMI-1640 broth medium by a 2-fold microdilution assay according to the Clinical and Laboratory Standards Institute (CLSI) methods. The Candida albicans CGMCC 2.2086, Candida tropicalis CGMCC 2.1975, and Candida krusei CGMCC 2.1857 fungal strains were purchased from the China General Microbiological Culture Collection Center (CGMCC, Beijing, China). Clinically isolated Candida albicans CA2761 was provided by the 4th Affiliated Hospital of Harbin Medical University. Briefly, fungal strains were cultured on YPD agar plates (1% peptone, 0.5% yeast extract, 1% glucose and 2% agar) at 28 °C to prepare Candida suspensions with a turbidity of a 0.5 McFarland standard. A total of 50 μl inoculum cell suspension diluted in RPMI-1640 broth medium was added to an equal volume of peptide solution to achieve a final peptide concentrations ranging from 0.25 μM to 128 μM in a 96-well plate. Pure broth alone or with inoculum suspensions was used as the negative control or the positive control, respectively. The plate was incubated at 28 °C for 48 h. MIC was considered the lowest concentration at which no fungal growth was visually observed under experimental conditions. […] After 48 h incubation at 28 °C, MFC was defined as the lowest concentration of peptides that killed at least 99.9% of the initial inoculums. Experiments were performed in triplicate with three biological replicates.
# [10] = test system: Candida krusei CGMCC 2.1857; experiment: microbe, parasite or virus in culture; assay type: cell-based
# Description: as §2
# [11] = test system: Candida tropicalis CGMCC 2.1975; experiment: microbe, parasite or virus in culture; assay type: cell-based
# Description: as §2
# [12] = test system: C. albicans CA276 (clinical isolate); experiment: microbe, parasite or virus in culture; assay type: cell-based, Candida albicans
# Description: as §2
# [13] = test system: fungi (four Candida strains); experiment: Geometric mean MIC and selectivity index, panel of fungi; assay type: cell-based; settings: geometric mean of the MIC values against the fungi of Table 3
# Description: The antifungal activities were monitored in RPMI-1640 broth medium by a 2-fold microdilution assay according to the Clinical and Laboratory Standards Institute (CLSI) methods. The Candida albicans CGMCC 2.2086, Candida tropicalis CGMCC 2.1975, and Candida krusei CGMCC 2.1857 fungal strains were purchased from the China General Microbiological Culture Collection Center (CGMCC, Beijing, China). Clinically isolated Candida albicans CA2761 was provided by the 4th Affiliated Hospital of Harbin Medical University. Briefly, fungal strains were cultured on YPD agar plates (1% peptone, 0.5% yeast extract, 1% glucose and 2% agar) at 28 °C to prepare Candida suspensions with a turbidity of a 0.5 McFarland standard. A total of 50 μl inoculum cell suspension diluted in RPMI-1640 broth medium was added to an equal volume of peptide solution to achieve a final peptide concentrations ranging from 0.25 μM to 128 μM in a 96-well plate. Pure broth alone or with inoculum suspensions was used as the negative control or the positive control, respectively. The plate was incubated at 28 °C for 48 h. MIC was considered the lowest concentration at which no fungal growth was visually observed under experimental conditions. […]
# SI values were determined by the ratio of MHC to GM, indicating the specificity of peptides towards pathogens and eukaryotic cells. […]
# [14] = test system: Escherichia coli ATCC 25922; settings: values marked c, determined as previously described; cited from earlier work
# Description: Table 2 MIC and MBC of the peptides against bacteria. | column: MIC ^a (MBC ^b) (μM) / Gram-negative bacteria / E. coli 25922
# [15] = test system: Escherichia coli UB1005; settings: values marked c, determined as previously described; cited from earlier work
# Description: Table 2 MIC and MBC of the peptides against bacteria. | column: MIC ^a (MBC ^b) (μM) / Gram-negative bacteria / E. coli 1005
# [16] = test system: Salmonella enterica serovar typhimurium C77-31; settings: values marked c, determined as previously described; cited from earlier work
# Description: Table 2 MIC and MBC of the peptides against bacteria. | column: MIC ^a (MBC ^b) (μM) / Gram-negative bacteria / S. typhi C77-31
# [17] = test system: Staphylococcus aureus ATCC 29213; settings: values marked c, determined as previously described; cited from earlier work
# Description: Table 2 MIC and MBC of the peptides against bacteria. | column: MIC ^a (MBC ^b) (μM) / Gram-positive bacteria / S. aureus 29213
# [18] = test system: Staphylococcus aureus ATCC 25923; settings: values marked c, determined as previously described; cited from earlier work
# Description: Table 2 MIC and MBC of the peptides against bacteria. | column: MIC ^a (MBC ^b) (μM) / Gram-positive bacteria / S. aureus 25923
# [19] = test system: Staphylococcus epidermidis ATCC 12228; settings: values marked c, determined as previously described; cited from earlier work
# Description: Table 2 MIC and MBC of the peptides against bacteria. | column: MIC ^a (MBC ^b) (μM) / Gram-positive bacteria / S. epidermidis 12228
# [20] = Clinically isolated EC183, 18 h
# [21] = lowest concentration killing at least 99.9% of initial inoculum, three independent experiments
# [22] = CLSI 2-fold microdilution, RPMI-1640, 28 °C for 48 h, visual, three independent experiments
# [23] = lowest concentration killing at least 99.9% of initial inoculum, YPD agar, 48 h at 28 °C, three independent experiments
structure (smiles),measurement,setting,value
CC[C@H](C)[C@H](NC(=O)[C@H](Cc1c[nH]c2ccccc12)NC(=O)[C@H](CCCCN)NC(=O)[C@H](CC(C)C)NC(=O)[C@@H](NC(=O)[C@H](CCCCN)NC(=O)CNC(=O)[C@@H](NC(=O)[C@H](CCCCN)NC(=O)[C@H](CCCCN)NC(=O)[C@H](CC(C)C)NC(=O)[C@H](CCCNC(=N)N)NC(=O)[C@H](CCCCN)NC(=O)[C@H](CCCNC(=N)N)NC(=O)[C@@H](N)[C@@H](C)O)[C@@H](C)CC)C(C)C)C(N)=O [TI15] (H-TRKRLKKIGKVLKWI-NH2),MBC B. subtilis 63501,"[1]; CMCC 63501, 18 h",4 µM
same,MIC B. subtilis 63501,"[1]; CMCC 63501, 18 h",2 µM
same,MBC E. coli EC183,[2]; [20],4 µM
same,MIC E. coli EC183,[2]; [20],2 µM
same,MBC E. coli 25922,"[3]; ATCC 25922, 18 h",16 µM
same,MIC E. coli 25922,"[3]; ATCC 25922, 18 h",8 µM
same,MBC E. coli 1005,"[4]; UB1005, 18 h",8 µM
same,MIC E. coli 1005,"[4]; UB1005, 18 h",4 µM
same,MIC S. typhi C77-31,"[5]; broth microdilution, MHB, ~1 × 10^5 CFU/ml, 18 h at 37 °C, visual",8 µM
same,MBC S. typhi C77-31,[5],32 µM
same,MBC S. aureus 25923,[6],128 µM
same,MIC S. aureus 25923,[6],32 µM
same,MBC S. aureus 29213,"[7]; ATCC 29213, 18 h",128 µM
same,MIC S. aureus 29213,"[7]; ATCC 29213, 18 h",32 µM
same,MBC S. epidermidis 12228,[8],64 µM
same,MIC S. epidermidis 12228,[8],32 µM
same,MFC C. albicans 2.2086,"[9]; CGMCC 2.2086, 48 h",64 µM
same,MIC C. albicans 2.2086,"[9]; CGMCC 2.2086, 48 h",64 µM
same,MFC,"[10]; CGMCC 2.1857, 48 h, read-out: MFC C. krusei 2.1857",16 µM
same,MIC,"[10]; CGMCC 2.1857, 48 h, read-out: MIC C. krusei 2.1857",8 µM
same,MFC,"[11]; CGMCC 2.1975, 48 h, read-out: MFC C. tropicalis 2.1975",4 µM
same,MIC,"[11]; CGMCC 2.1975, 48 h, read-out: MIC C. tropicalis 2.1975",2 µM
same,MFC C. albicans CA276,"[12]; CA276 (clinical isolate, 48 h)",128 µM
same,MIC C. albicans CA276,"[12]; CA276 (clinical isolate, 48 h)",128 µM
"CC[C@H](C)[C@H](NC(=O)CN)C(=O)NCC(=O)N[C@@H](C)C(=O)N[C@H](C(=O)N[C@@H](CC(C)C)C(=O)N[C@@H](CCCCN)C(=O)N[C@H](C(=O)N[C@@H](CC(C)C)C(=O)N[C@H](C(=O)N[C@H](C(=O)NCC(=O)N[C@@H](CC(C)C)C(=O)N1CCC[C@H]1C(=O)N[C@@H](C)C(=O)N[C@@H](CC(C)C)C(=O)N[C@H](C(=O)N[C@@H](CO)C(=O)N[C@@H](Cc1c[nH]c2ccccc12)C(=O)N[C@H](C(=O)N[C@@H](CCCCN)C(=O)N[C@@H](CCCNC(=N)N)C(=O)N[C@@H](CCCCN)C(=O)N[C@@H](CCCNC(=N)N)C(=O)N[C@@H](CCC(N)=O)C(=O)N[C@@H](CCC(N)=O)C(N)=O)[C@@H](C)CC)[C@@H](C)CC)[C@@H](C)O)[C@@H](C)O)C(C)C)C(C)C [melittin, reference compound]",MBC B. subtilis 63501,[1]; [21],2 µM
same,MIC E. coli EC183,"[2]; broth microdilution, MHB, ~1 × 10^5 CFU/ml, 18 h at 37 °C, visual, three independent experiments",2 µM
same,MBC E. coli EC183,[2]; [21],2 µM
same,MBC E. coli 25922,"[3]; lowest concentration killing at least 99.9% of initial inoculum, plated on MHA after MIC incubation, three independent experiments",4 µM
same,MBC E. coli 1005,[4]; [21],4 µM
same,MBC S. typhi C77-31,[5],2^c (2) μM
same,MBC S. aureus 29213,[7]; [21],16 µM
same,MIC,[9]; [22],4 µM
same,MFC,[9]; [23],8 µM
same,MIC,[10]; [22],2 µM
same,MFC,[10]; [23],4 µM
same,MIC C. tropicalis 2.1975,[11]; [22],2 µM
same,MFC C. tropicalis 2.1975,[11]; [23],2 µM
same,MIC,[12]; [22],8 µM
same,MFC,[12]; [23],16 µM
same,GM (geometric mean of MIC values) Fungi,[13],3.36 µM
same,MIC E. coli 25922,[14],2 µM
same,MIC E. coli 1005,[15],2 µM
same,MIC S. typhi C77-31,[16],2^c (2) μM
same,MIC S. aureus 29213,[17],8 µM
same,MIC S. aureus 25923,[18],8^c (8) μM
same,MIC S. epidermidis 12228,[19],0.5 µM
